Experimental data reported in patent US8633184B2, “Benzoazepin-oxy-acetic acid derivatives as PPAR-delta agonists used for the increase of HDL-C, lower LDL-C and lower cholesterol” (Janssen Pharmaceutica N.V., priority 2006, dated 2014).
Several values for one entry are separate records, joined by “and”; a condition that tells them apart may be missing. Equal values may be shown once. Read-outs that look alike come from different tables or passages of the source.

How the values were obtained:
[1] = system: Sprague Dawley rats fed a diet high in cholesterol; test: Rat study: high cholesterol diet, serum lipids and liver weights after 8 days treatment; format: in vivo; details: for HDL-C / LDL-C / Total Cholesterol / Triglycerides / Liver Weights: 8 days
From the text: (§1) Rats carry the majority of serum cholesterol in the HDL lipoprotein fraction while humans carry the majority of serum cholesterol in LDL and VLDL lipoproteins. To mimic a human hypercholesterolemic state in a rodent model, Sprague Dawley rats were fed a diet high in cholesterol (Research Diets, C13002) for 6 days before treatment with the compounds for another 8 days while remaining on the diet. Under this dietary regimen, the vehicle controls (HC: High Cholesterol) typically have serum total cholesterol and LDL-C levels that are increased by 3-8 fold and serum HDL-C is decreased by approximately 30-50% compared with chow diet (lean) controls.
(§2) Compound 7 had no effect on serum triglycerides or liver weights.

[2] = Rat study: drug plasma levels (pharmacokinetics); format: in vivo
From the text: as §1, §2

PPARγ = molecular target: T1, PPARγ (Homo sapiens, UniProt P37231); test: Transfection assay, GAL4-PPARγ LBD luciferase reporter in HEK293 cells; format: cell-based; details: 18-24 hrs
T1 construct: expressed in transfected cells; host or cells: HEK293
T1 sequence (P37231 238-503 limits assumed): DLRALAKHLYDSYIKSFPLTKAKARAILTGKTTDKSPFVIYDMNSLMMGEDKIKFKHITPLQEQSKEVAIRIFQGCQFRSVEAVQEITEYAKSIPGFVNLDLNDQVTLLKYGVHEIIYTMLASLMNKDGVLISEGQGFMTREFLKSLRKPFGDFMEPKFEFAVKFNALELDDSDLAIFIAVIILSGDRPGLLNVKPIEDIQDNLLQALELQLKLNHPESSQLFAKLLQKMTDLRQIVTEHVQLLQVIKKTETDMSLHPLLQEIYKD
Procedure: (§3) HEK293 cells were grown in DMEM/F12 medium supplemented with 10% FBS and glutamine (Invitrogen) and incubated in a 5% CO2 incubator at 37° C. The cells were co-transfected using DMRIE-C reagent (Invitrogen) in serum free medium (Opti-MEM, Invitrogen) with two mammalian expression plasmids, one containing the DNA sequence coding for the ligand binding domains of either PPARα, γ or δ fused to the yeast GAL4 DNA binding domain and the other containing the promoter sequence of the yeast GAL4 (UAS) fused to the firefly luciferase cDNA reporter. The next day, the medium was changed to DMEM/F12 medium supplemented with 5% charcoal treated serum (Hyclone) and glutamine. After 6 hrs the cells were trypsinized and seeded at a density of 50,000 cells/well into 96 well plates and incubated overnight as above. The cells were then treated with test compounds or vehicle and incubated for 18-24 hrs as above. Luciferase reporter activity was measured using the Steady-Glo Luciferase Assay Kit from Promega. DMRIE-C Reagent was purchased from GIBCO Cat. No. 10459-014. OPTI-MEM I Reduced Serum Medium was purchased from GIBCO (Cat. No. 31985). Steady-Glo Luciferase Assay Kit was purchased from Promega (Part #E254B).
(§4) A variety of example compounds have been made and tested, with a range of in vitro results. Below, in Table 2, are representative compounds and data; in some cases, where multiple EC50's are shown, multiple measurements were taken. Naturally, different compounds in Formula (I) may have not activities identical to any one compound below.

PPARδ = molecular target: T2, PPARδ (Homo sapiens, UniProt Q03181); test: Transfection assay, GAL4-PPARδ LBD luciferase reporter in HEK293 cells; format: cell-based; details: 18-24 hrs
T2 construct: expressed in transfected cells; host or cells: HEK293
T2 sequence (Q03181 211-439 limits assumed): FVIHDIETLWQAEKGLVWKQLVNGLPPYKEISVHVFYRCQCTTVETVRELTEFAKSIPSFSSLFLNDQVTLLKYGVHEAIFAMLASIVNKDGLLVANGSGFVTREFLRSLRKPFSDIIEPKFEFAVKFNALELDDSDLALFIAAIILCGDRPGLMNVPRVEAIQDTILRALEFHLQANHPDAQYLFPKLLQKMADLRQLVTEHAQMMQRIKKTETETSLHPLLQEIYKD
Procedure: as §3, §4

[3] = Rat study: drug plasma levels (pharmacokinetics); format: in vivo; details: for Cmax / half-life / AUC(0-t): Sprague Dawley, plasma
PPARα = molecular target: T3, PPARα (Homo sapiens, UniProt Q07869); test: Transfection assay, GAL4-PPARα LBD luciferase reporter in HEK293 cells; format: cell-based; details: 18-24 hrs
T3 construct: expressed in transfected cells; host or cells: HEK293
T3 sequence (Q07869 239-466 limits assumed): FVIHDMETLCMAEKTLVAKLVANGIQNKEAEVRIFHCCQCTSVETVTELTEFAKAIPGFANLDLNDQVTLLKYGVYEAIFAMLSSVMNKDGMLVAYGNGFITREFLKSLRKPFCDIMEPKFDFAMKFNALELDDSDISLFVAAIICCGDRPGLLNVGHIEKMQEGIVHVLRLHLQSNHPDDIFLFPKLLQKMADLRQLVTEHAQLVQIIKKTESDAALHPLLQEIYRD
Procedure: as §3, §4

- Liver Weights ([1]; 0.3 mg/kg): 25.0 ± 0.8
- Liver Weights ([1]; 1 mg/kg): 23.9 ± 0.5
- Liver Weights ([1]; 3 mg/kg): 27.2 ± 0.9
- liver weights (effect in words) ([1]; 8 days treatment): no effect
- drug plasma levels (Cmax and AUC), in words [2]: dose-related increases
- Tmax ([2]; Dose 0.1, Multiple, n = 2): 2.5 h
- Tmax ([2]; Dose 0.3, Multiple): 3 h
- Tmax ([2]; Dose 1, Multiple, n = 2): 4 h
- Tmax ([2]; Dose 3, Single, n = 2): 5.5 h
- AUC(0-t) ([2]; Sprague Dawley, plasma, 0.1 mg/kg, Dose 0.1, Multiple, n = 2, read-out: AUC0-24): 772 ng·h/mL
- half-life ([2]; Sprague Dawley, plasma, 0.3 mg/kg, Dose 0.3, Multiple, read-out: t½): ~22 h
- AUC(0-t) ([2]; Sprague Dawley, plasma, 3 mg/kg, Dose 3, Multiple, read-out: AUC0-24): 37100 ng·h/mL
- EC50 (PPARγ): > 3000 nM
- EC50 (PPARδ): 14.5 nM and 18.9 nM
- Tmax ([3]; Dose 3, Multiple): 5 h
- Cmax ([3]; 0.1 mg/kg, Dose 0.1, Multiple, n = 2): 57 ng/mL
- half-life ([3]; 0.1 mg/kg, Dose 0.1, Multiple, n = 2, read-out: t½): ~13 h
- Cmax ([3]; 0.3 mg/kg, Dose 0.3, Multiple): 124 ng/mL
- AUC(0-t) ([3]; 0.3 mg/kg, Dose 0.3, Multiple, read-out: AUC0-24): 1640 ng·h/mL
- Cmax ([3]; 1 mg/kg, Dose 1, Multiple, n = 2): 595 ng/mL
- AUC(0-t) ([3]; 1 mg/kg, Dose 1, Multiple, n = 2, read-out: AUC0-24): 10900 ng·h/mL
- Cmax ([3]; 3 mg/kg, Dose 3, Multiple): 2030 ng/mL
- half-life ([3]; 3 mg/kg, Dose 3, Multiple, read-out: t½): ~36 h
- Cmax ([3]; 3 mg/kg, Dose 3, Single, n = 2): 733 ng/mL
- AUC(0-t) ([3]; 3 mg/kg, Dose 3, Single, n = 2, read-out: AUC0-24): 14200 ng·h/mL
- half-life ([3]; 3 mg/kg, Dose 3, Single, n = 2, read-out: t½): ~29 h
- EC50 (PPARα): > 3000 nM
Structure (SMILES): O=C(O)COc1ccc2c(c1)CCN(Cc1ccc(-c3ccc(C(F)(F)F)cc3)s1)CC2 [compound 7]
- HDL-C ([1]; 0.1 mg/kg): 24.2 ± 2.9 mg/dL
- LDL-C ([1]; 0.1 mg/kg): 32.7 ± 4.7 mg/dL
- Total Cholesterol ([1]; 0.1 mg/kg): 239.0 ± 22.4 mg/dL
- Triglycerides ([1]; 0.1 mg/kg): 269.8 ± 27.8 mg/dL
- HDL-C ([1]; 0.3 mg/kg): 29.6 ± 1.4 mg/dL
- LDL-C ([1]; 0.3 mg/kg): 31.2 ± 1.5 mg/dL
- Total Cholesterol ([1]; 0.3 mg/kg): 233.2 ± 9.5 mg/dL
- Triglycerides ([1]; 0.3 mg/kg): 264.7 ± 29.8 mg/dL
- HDL-C ([1]; 1 mg/kg): 31.8 ± 0.9 mg/dL
- LDL-C ([1]; 1 mg/kg): 24.4 ± 1.3 mg/dL
- Total Cholesterol ([1]; 1 mg/kg): 173.3 ± 7.9 mg/dL
- Triglycerides ([1]; 1 mg/kg): 237.7 ± 25.4 mg/dL
- HDL-C ([1]; 3 mg/kg): 39.6 ± 1.6 mg/dL
- LDL-C ([1]; 3 mg/kg): 20.6 ± 1.5 mg/dL
- Total Cholesterol ([1]; 3 mg/kg): 152.2 ± 8.5 mg/dL
- Triglycerides ([1]; 3 mg/kg): 299.5 ± 35.9 mg/dL
- LDL-C levels (effect in words) ([1]; 8 days treatment): significant decreases
- serum total cholesterol levels (effect in words) ([1]; 8 days treatment): significant decreases
- serum triglycerides (effect in words) ([1]; 8 days treatment): no effect
- HDL-C levels (effect in words) ([1]; 8 days treatment, achieving the levels of the chow fed controls): significantly increased
